{"source": "ChEMBL document CHEMBL2074471", "about": "“Electrogenic properties and substrate specificity of the polyspecific rat cation transporter rOCT1” (J Biol Chem, 1996)", "key": {"[1]": {"molecular_target": "T1, Solute carrier family 22 member 1 (Rattus norvegicus, UniProt Q63089)", "T1 sequence (Q63089 whole entry)": "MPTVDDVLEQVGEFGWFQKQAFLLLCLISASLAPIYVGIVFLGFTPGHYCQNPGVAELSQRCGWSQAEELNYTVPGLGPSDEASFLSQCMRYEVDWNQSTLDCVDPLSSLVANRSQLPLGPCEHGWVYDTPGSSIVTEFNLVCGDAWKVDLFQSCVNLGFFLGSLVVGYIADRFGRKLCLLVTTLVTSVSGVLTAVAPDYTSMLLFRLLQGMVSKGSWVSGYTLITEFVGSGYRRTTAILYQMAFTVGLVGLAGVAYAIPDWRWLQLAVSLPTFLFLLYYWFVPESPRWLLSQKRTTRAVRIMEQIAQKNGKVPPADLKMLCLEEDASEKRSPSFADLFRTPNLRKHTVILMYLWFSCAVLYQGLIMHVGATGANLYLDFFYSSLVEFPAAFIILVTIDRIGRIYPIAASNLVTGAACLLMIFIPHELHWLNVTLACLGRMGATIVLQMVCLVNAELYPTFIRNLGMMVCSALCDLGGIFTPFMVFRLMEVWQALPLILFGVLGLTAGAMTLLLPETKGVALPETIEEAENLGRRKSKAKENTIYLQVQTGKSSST", "assay": "TP_TRANSPORTER: uptake (electrogenesis) in Xenopus laevis oocytes", "format": "functional, cell-based", "conditions": "oocyte"}, "[2]": {"substrate": "CNC(=O)c1cccnc1", "assay": "(§1) TP_TRANSPORTER: uptake in Xenopus laevis oocytes", "format": "functional, cell-based, Oocyte"}, "[3]": {"substrate": "C[n+]1ccc(-c2ccccc2)cc1", "assay": "as §1", "format": "functional, cell-based, Oocyte"}, "[4]": {"substrate": "CC[N+](CC)(CC)CC", "assay": "cells, lysate or membranes named"}}, "data": [{"molecule": "NCCCCNCCCN", "note": "[SPERMIDINE]", "values": [{"measurement": "Activity", "setting": "[1]", "result": "substrate [+]"}]}, {"molecule": "CC[n+]1c(CC2C=C(C)N=C(c3ccccc3)N2C)ccc2ccccc21.[Cl-]", "note": "(configuration not stated) [Cyanine-863]", "values": [{"measurement": "Activity", "setting": "[1]", "result": "substrate [+]"}]}, {"molecule": "NCCCNCCCCNCCCN", "note": "[SPERMINE]", "values": [{"measurement": "Activity", "setting": "[1]", "result": "substrate [+]"}]}, {"molecule": "CC(=O)O[C@H]1C[C@@H]2CC[C@@H]3[C@H](CC[C@@]4(C)[C@H]3C[C@H]([N+]3(C)CCCCC3)[C@@H]4OC(C)=O)[C@@]2(C)C[C@@H]1[N+]1(C)CCCCC1", "note": "[PANCURONIUM]", "values": [{"measurement": "Activity", "setting": "[1]", "result": "substrate [+]"}]}, {"molecule": "Solute carrier family 22 member 1 (Rattus norvegicus) (protein) MPTVDDVLEQVGEFGWFQKQAFLLLCLISASLAPIYVGIVFLGFTPGHYCQNPGVAELSQRCGWSQAEELNYTVPGLGPSDEASFLSQCMRYEVDWNQSTLDCVDPLSSLVANRSQLPLGPCEHGWVYDTPGSSIVTEFNLVCGDAWKVDLFQSCVNLGFFLGSLVVGYIADRFGRKLCLLVTTLVTSVSGVLTAVAPDYTSMLLFRLLQGMVSKGSWVSGYTLITEFVGSGYRRTTAILYQMAFTVGLVGLAGVAYAIPDWRWLQLAVSLPTFLFLLYYWFVPESPRWLLSQKRTTRAVRIMEQIAQKNGKVPPADLKMLCLEEDASEKRSPSFADLFRTPNLRKHTVILMYLWFSCAVLYQGLIMHVGATGANLYLDFFYSSLVEFPAAFIILVTIDRIGRIYPIAASNLVTGAACLLMIFIPHELHWLNVTLACLGRMGATIVLQMVCLVNAELYPTFIRNLGMMVCSALCDLGGIFTPFMVFRLMEVWQALPLILFGVLGLTAGAMTLLLPETKGVALPETIEEAENLGRRKSKAKENTIYLQVQTGKSSST", "values": [{"measurement": "Km", "setting": "[2]", "result": 340, "unit": "µM"}, {"measurement": "Km", "setting": "[3]", "result": 9.6, "unit": "µM"}, {"measurement": "Km", "setting": "[4]", "result": 35, "unit": "µM"}]}]}
